Data from article PMC12669040, “Tumour-specific STING agonist synthesis via a two-component prodrug system” (Nature Chemistry, 2025).
pEC50: −log10 of the molar value. “And” between values parts separate entries of the source, which are not always exact repeats. Equal entries are not always repeated.

Columns and labels:
[1] = system: THP-1 Lucia ISG cells (interferon pathway); assay: Potency test of purified dimers on THP-1 Lucia ISG reporter cells; assay type: cell-based, human; settings: for Raw readings: replicates 1-3, duplicate wells
Experimental: Cells were pelleted (150g, 10 min) and resuspended in the growth medium (40% conditioned) at a density of 1 × 10^6 cells ml^−1. The cell suspension was dispensed (50 µl each well) into a lidded white 96-well plate (BrandTech 781665). Test compounds or DMSO control were diluted in the growth medium and sterilized by filtering through 0.22-µm polyethersulfone (PES) membranes (Merck SLGP033RS). […] Upon cooling down to room temperature, 50 µl of reconstituted luciferase substrate (InvivoGen QUANTI-Luc) was added to each well via the injector of the plate reader (Molecular Devices SpectraMax i3x), and the luminescence output was recorded (4 s delay, 0.1 s integration). Raw signals were divided by the averaged signal of the DMSO-treated control wells and reported in relative luminescence unit (RLU). The dose–response curve of each replicate was fitted individually using the standard 4PL model (GraphPad Prism). The EC50 value of each compound was averaged from three independent experiments and reported as mean ± s.e.m.

[2] = system: Hs578T xenografts; assay: Hs578T zebrafish xenograft model; settings: for 2dpi phagocytosis: individual larvae; for M1 (M1/M2) / M2 (M1/M2) / Caspase-3 / TAM / Tumor Size: replicate values

For COc1cc2cc(C(=O)CCC(=O)O)sc2cc1OC [MSA2], the fold induction at 0.244141 µM ([1]; Homo sapiens, THP1-Lucia ISG, 24 h, Concentration 0.244141 μM, three replicates, read-out: Processed reporter response per replicate (reading relative to DMSO)) was 1.21, the fold induction at 0.976563 µM ([1]; Homo sapiens, THP1-Lucia ISG, 24 h, Concentration 0.976563 μM, three replicates, read-out: Processed reporter response per replicate (reading relative to DMSO)) was 1.26 and the fold induction at 1.95312 µM ([1]; Homo sapiens, THP1-Lucia ISG, 24 h, Concentration 1.95312 μM, three replicates, read-out: Processed reporter response per replicate (reading relative to DMSO)) was 0.95. It also gave a fold induction at 3.90625 µM ([1]; Homo sapiens, THP1-Lucia ISG, 24 h, Concentration 3.90625 μM, three replicates, read-out: Processed reporter response per replicate (reading relative to DMSO)) of 1.7, a fold induction at 15.625 µM ([1]; Homo sapiens, THP1-Lucia ISG, 24 h, Concentration 15.625 μM, three replicates, read-out: Processed reporter response per replicate (reading relative to DMSO)) of 316 and a fold induction at 31.25 µM ([1]; Homo sapiens, THP1-Lucia ISG, 24 h, Concentration 31.25 μM, three replicates, read-out: Processed reporter response per replicate (reading relative to DMSO)) of 499. It also gave a fold induction at 62.5 µM ([1]; Homo sapiens, THP1-Lucia ISG, 24 h, Concentration 62.5 μM, three replicates, read-out: Processed reporter response per replicate (reading relative to DMSO)) of 530, a fold induction at 125 µM ([1]; Homo sapiens, THP1-Lucia ISG, 24 h, Concentration 125 μM, three replicates, read-out: Processed reporter response per replicate (reading relative to DMSO)) of 553 and a pEC50 ([1]; Homo sapiens, THP1-Lucia ISG, 24 h, three biological replicates, read-out: EC50, THP-1 Lucia interferon reporter) of 4.82. The “Raw readings” value ([1]; MSA2 0.244141 uM) was 644 RLU and 918 RLU and 1550 RLU and 217 RLU and 421 RLU, the “Raw readings” value ([1]; MSA2 0.488281 uM) was 365 RLU and 407 RLU and 1564 RLU and 1732 RLU and 767 RLU and 301 RLU and the “Raw readings” value ([1]; MSA2 0.976563 uM) was 533 RLU and 812 RLU and 1033 RLU and 1215 RLU and 1749 RLU and 577 RLU. For the same compound, the “Raw readings” value ([1]; MSA2 1.95312 uM) was 558 RLU and 456 RLU and 1596 RLU and 1428 RLU and 16030 RLU and 391 RLU, the “Raw readings” value ([1]; MSA2 3.90625 uM) was 737 RLU and 1083 RLU and 2552 RLU and 2286 RLU and 91800 RLU and 972 RLU and the “Raw readings” value ([1]; MSA2 7.8125 uM) was 10329 RLU and 8090 RLU and 44667 RLU and 40124 RLU and 159658 RLU and 39192 RLU. The “Raw readings” value ([1]; MSA2 15.625 uM) was 182029 RLU and 155323 RLU and 290195 RLU and 281155 RLU and 218467 RLU and 180884 RLU, the “Raw readings” value ([1]; MSA2 31.25 uM) was 283415 RLU and 249220 RLU and 393493 RLU and 394488 RLU and 219551 RLU and 327473 RLU and the “Raw readings” value ([1]; MSA2 62.5 uM) was 293238 RLU and 272508 RLU and 497557 RLU and 499850 RLU and 276937 RLU and 389453 RLU. For the same compound, the “Raw readings” value ([1]; MSA2 125 uM) was 315598 RLU and 275220 RLU and 511799 RLU and 524474 RLU and 276606 RLU and 386234 RLU, the 2dpi phagocytosis ([2]; experiment 230522) was 35 and 14 and 22 and 25 and 15 and the 2dpi phagocytosis ([2]; experiment 230726) was 13 and 22 and 48 and 31 and 19 and 33 and 17. For the same compound, the “M1 (M1/M2)” value ([2]; 2dpi) was 60 and 67.5676 and 80 and 70.8333 and 69.7674 and 76.1905 and 64.1026 and 75 and 95.082 and 71.7949 and 80.6452 and 74.4681 and 72.4638 and 63.6364, the “M2 (M1/M2)” value ([2]; 2dpi) was 40 and 32.4324 and 20 and 29.1667 and 30.2326 and 23.8095 and 35.8974 and 25 and 4.918 and 28.2051 and 19.3548 and 25.5319 and 27.5362 and 36.3636 and the “apoptosis (activated Caspase 3) in xenografts” value ([2]; 4 dpi, MSA2 15 μM, SC2S 0.62 μM, β-GlcA-N1/E4 20 μM each) was “significantly induced apoptosis”. The “M1 (M1/M2)” value ([2]; 4dpi) was 35.7143 and 18.1818 and 40 (2×) and 21.0526 and 50 (3×) and 20 and 60 (2×) and 61.1111 and 28.125 and 25, the “M2 (M1/M2)” value ([2]; 4dpi) was 64.2857 and 81.8182 and 60 (2×) and 78.9474 and 50 (3×) and 80 and 40 (2×) and 38.8889 and 71.875 and 75 and the Caspase-3 ([2]; experiment 230522) was 1.291 and 1.3466 and 1.247 and 1.364 and 1.32 and 1.585 and 1.384 and 1.691 and 1.403 and 2.142 and 1.383. For the same compound, the TAM ([2]; experiment 230522) was 1.785 and 1.828 and 1.882 and 4.773 and 1.144 and 1.242 and 2.18 and 1.55 and 1.171, the “Tumor Size” value ([2]; experiment 230522) was 0.8654 and 0.6638 and 0.8064 and 0.8329 and 0.9735 and 0.8457 and 0.6726 and 0.8811 and 0.8231 and 0.9824 and 0.6461 and the Caspase-3 ([2]; experiment 230726) was 1.714 and 1.239 and 2.528 and 1.801 and 0.8175 and 0.6878 and 1.986 and 0.813 and 0.7306 and 1.755. For the same compound, the TAM ([2]; experiment 230726) was 1.62 and 4.474 and 2.224 and 3.257 and 1.206 and 1.259 and the “Tumor Size” value ([2]; experiment 230726) was 0.8603 and 1.051 and 0.553 and 0.606 and 0.4686 and 0.6683 and 0.7425 and 0.3533 and 0.734 and 0.8296.
